Experimental data taken from patent publication US12049646B2, “SC-beta cells and compositions and methods for generating the same” (President and Fellows of Harvard College, priority 2013, dated 2024).

Columns and labels:
Assay type in all cases: cell-based, human
SC-β cells [1] = assay: Insulin secretion of plated SC-β cells treated with anti-diabetic drugs in 2 and 20 mM glucose; settings: drug-treated versus control
Source text: The inventors first tested whether SC-β cells could respond to existing anti-diabetic drugs from several different classes (FIG. 16B). LY2608204 is glucokinase activator in clinical trials while liraglutide, tolbutamide, and nateglinide are examples of GLP-1 agonists and secretagogues (sulfonylureas and meglitinides), respectively, that have been used clinically (Matschinsky, 2009; Modi, 2007; Vetere et al., 2014).

hPSC derived cells = assay: Protocol modifications at Steps 3-6: cell survival and marker-positive populations; settings: for cell survival: treatment during Steps 3-5 of differentiation
Source text: One challenge for the stem cell field has been generating a sufficient quantity of SC-β cells that can be useful for drug screening, disease modeling, or therapeutic use. For example, hES cells are technically difficult to culture, are vulnerable to apoptosis upon cellular detachment and dissociation, undergo massive cell death particularly after complete dissociation, and have low cloning efficiency. (Watanabe, K. et al., Nature Biotechnology 25, 681-686 (2007)). As a result, the quantity of viable SC-β cells yielded may be low. By modify the protocol between Steps 3 and 6 in the manner shown in FIG. 15A, more pure NKX6.1+ endocrine clusters can be generated (FIG. 15B) leading to more SC-β cells that can be therapeutically useful.
In Steps 3-5, for instance, cell survival can be improved by adding a rho-associated protein kinase inhibitor, or a Rock inhibitor. It is believed that the addition of a Rock inhibitor enhances survival of ES cells by preventing dissociation-induced apoptosis thus increasing their cloning efficiency. (Watanabe et al.) Examples of Rock inhibitors include, but are not limited to, Y-27632, Fasudil/HA1077, and H-1152.
In addition to treating the cells with a Rocki inhibitor, the cells in Steps 3-4 can be treated with ActivinA alone or in combination with Nicotinamide. […] Since SOX2 and NKX6-1 are mutually exclusive (FIG. 15E), down-regulation of SOX2 results in the up-regulation of NKX6-1, a marker for a mature pancreatic β cell.
In Steps 5-6, cell survival can further be enhanced by treating cells with staurosporine. Staurosporine is known to be an activator of neuronal, glial, and stem cell-like neurosphere differentiation and is also thought to induce apoptosis. (Schumacher, et al., Mol. Cell. Neurosci. 2003; 23(4): 669-680).
Finally, cell survival can further be enhanced by treating cells with a culture medium containing Alk5i, T3 in combination with XXI, a γ-secretase inhibitor that improves β cell maturation.
Cells were dispersed into single-cell suspension by incubation in TrypLE Express at 37° C. for 10-30 min in a 15 ml falcon tube. Starting at stage 5, clusters take longer to dissociate into single cells. Clusters should be incubated with TrypLE Express until they dissociate to single cells upon mixing by pipetting gently up and down with a P1000. The TrypLE Express was quenched with 3-4 times media and cells were spun down for 5 min at 1000 rpm. Cells were washed twice in PBS and transferred to a 1.7 ml Safe seal microcentrifuge tube (Bioscience Inc.; 11510). Make sure having 1-10 mio cells/tube and use 0.5-1 ml volumes in the following. Cells were resuspended in 4% paraformaldehyde (PFA) (Electron Microscopy Science Nm; 15710) and incubated on ice for 30 min. Cells were then washed 3 times in PBS followed by incubation in blocking buffer (PBS+0.1% TritonX100 (VWR; EM-9400)+5% donkey serum (Jackson Immunoresearch; 017-000-121)) on ice for 1 hour. After fixation cells are more resistant to centrifugation, so after fixation all centrifugations were done at 3000 g for 3 min. Cells were then resuspended in blocking buffer with primary antibodies and incubated at 4° C. overnight. […]

SC-β cells [2] = assay: GSIS of SC-β cells after adding factors to the CMRL media at the last differentiation step (Stage 6); settings: factor added to CMRL media containing Alk5 inhibitor and T3 hormone, versus CMRL only, CMRL+Alk5 inhibitor+T3 or S3+Alk5 inhibitor+T3; for stimulation index (ratio of insulin secreted in high glucose to low glucose): 15 mM vs 2.5 mM glucose
Source text: To induce the in vitro maturation of at least some of the Pdx1-positive, NKX6-1-positive, insulin-positive endocrine cells into SC-β cells, the Pdx1-positive, NKX6-1-positive, insulin-positive endocrine cells are maintained in a suitable culture medium for a sufficient period of time. […] Adding additional factors to the CMRL media at the last step of differentiation (Stage 6) (FIG. 14A), however, was also found to generate a better glucose stimulated insulin secretion (GSIS) response by SC-β cells as measured by either stimulation index between high and low glucose challenges or by the amount of insulin released. Such additional factors may include, but are not limited to, Sant1, XXI, and SSP. The stimulation index, as calculated by the ratio of insulin secreted in high glucose (15 mM) to low glucose (2.5 mM), was greater for the SC-β cells maintained in a CMRL media containing Alk5 inhibitor, T3 hormone and either Sant1, XXI or SSP than those SC-β cells maintained in only CMRL media, CMRL media containing Alk5 inhibitor and T3 hormone, or S3 media containing Alk5 inhibitor and T3 hormone (FIG. 14B). Furthermore, the amount of insulin secreted was greater for the SC-β cells maintained in a CMRL media containing Alk5 inhibitor, T3 hormone and either Sant1, XXI or SSP than those SC-β cells maintained in only CMRL media, CMRL media containing Alk5 inhibitor and T3 hormone, or S3 media containing Alk5 inhibitor and T3 hormone (FIG. 14C).
Alternatively, Days 21-35: CMRLS+10 μM Alk5i II+1 μM T3+Sant1.
Alternatively, Days 21-35: CMRLS+10 μM Alk5i II+1 μM T3+XXI.
Alternatively, Days 21-35: CMRLS+10 μM Alk5i II+1 μM T3+SSP.

In the case of `O=C(Nc1ncc(SCCN2CCCC2)s1)[C@]1(c2ccc(S(=O)(=O)C3CC3)cc2)C[C@H]1C1CCCCC1` [LY2608204], the “insulin secretion of SC-β cells following a glucose challenge” value (from here on “insulin secretion”) (SC-β cells [1]) is reported as “trend toward responding to treatment with these drugs by increasing insulin secretion”.

For `NC(=O)c1cccnc1` [Nicotinamide], the cell survival (hPSC derived cells) was “improve cell survival”.

In the case of `Cc1nn(-c2ccccc2)c(C)c1/C=N/N1CCN(Cc2ccccc2)CC1` [Sant1], the “stimulation index (ratio of insulin secreted in high glucose to low glucose)” value (SC-β cells [2]) is reported as “greater” and the “amount of insulin secreted” value (SC-β cells [2]) is reported as “greater”.

In the case of `C[C@H](NC(=O)Cc1cc(F)cc(F)c1)C(=O)N[C@H]1N=C(c2ccccc2)c2ccccc2N(C)C1=O` [XXI], the “stimulation index (ratio of insulin secreted in high glucose to low glucose)” value (SC-β cells [2]) is reported as “greater”, the “amount of insulin secreted” value (SC-β cells [2]) is reported as “greater” and the “NeuroD1+ population” value (hPSC derived cells; added to medium with Alk5i and T3 at Steps 5 and 6, versus Alk5i and T3 only) is reported as “increase the NeuroD1+ population”.

For `CC(C)[C@H]1CC[C@H](C(=O)N[C@H](Cc2ccccc2)C(=O)O)CC1` [nateglinide], the “insulin secretion” value (SC-β cells [1]) was “trend toward responding to treatment with these drugs by increasing insulin secretion”.

For `CN[C@@H]1C[C@H]2O[C@@](C)([C@@H]1OC)n1c3ccccc3c3c4c(c5c6ccccc6n2c5c31)C(=O)NC4` [staurosporine], the “percentage of Chromogranin A (pancreatic endocrine cell marker)” value (hPSC derived cells; treatment in Steps 5-6) was “increasing the percentage of Chromogranin A” and the “percentage of NKX6-1/C-peptide+ cells” value (hPSC derived cells; treatment in Steps 5-6) was “increasing the percentage of NKX6-1.C-peptide+ cells”.

In the case of `CCCCNC(=O)NS(=O)(=O)c1ccc(C)cc1` [tolbutamide], the “insulin secretion” value (SC-β cells [1]) is reported as “trend toward responding to treatment with these drugs by increasing insulin secretion”.

B1: Activin A: growth factor from the TGF-β superfamily (protein, UniProt P08476 311-426, looked up)
Inhibin beta A chain: GLECDGKVNICCKKQFFVSFKDIGWNDWIIAPSGYHANYCEGECPSHIAGTSGSSLSFHSTVINHYRMRGHSPFANLKSCCVPTKLRPMSMLYYDDGQNIIKKDIQNMIVEECGCS
modifications: Inhibin beta A chain
notes: growth factor from the TGF-β superfamily
In the case of B1, the cell survival (hPSC derived cells) is reported as “improve cell survival”.
